Reference: article PMC6278656, “Synthesis and Biological Evaluation of Phaeosphaeride A Derivatives as Antitumor Agents” (Molecules, 2018)

Tests used:
Format in all cases: cell-based
[1] = system: human lung cancer A549 cells; test: MTT cytotoxicity assay, A549; details: 72 h, n = 3, ± SD, read-out: Adhesive Cell Cultures, IC50 A549
Experimental: (§1) All newly synthesized PPA derivatives 1–8 were evaluated for their anti-proliferative activity against human breast cancer MCF-7, human prostate adenocarcinoma PC-3, human colorectal cancer HCT-116, human lung cancer A549, human chronic myelogenous leukemia K562, human acute monocytic leukemia THP-1, human multiple myeloma RPMI8226, human acute T-cell leukemia Jurkat, human multiple myeloma NCI-H929, and human embryonic fibroblasts HEF cell lines by MTT assays. All cells were incubated with different concentrations of PPA derivatives for 72 h, with etoposide and PPA used as reference compounds. The anticancer activity of the tested compounds was described as the concentration of drug inhibiting 50% cell growth IC50 (Table 1 and Table 2).
(§2) ^1H-NMR spectra were acquired on an AVANCE III 400 MHz NMR spectrometer (Bruker, Rheinstetten, Germany) in CDCl3. Optical rotations were acquired on a Polaar 3005 Polarimeter (Optical Activity, Huntingdon, Great Britain) using a 2.5 cm cell with a Na 589 nm filter and the concentration of samples was denoted as c. Mass spectra data were acquired on a TSQ Quantum Access Max Mass spectrometer (Thermo Fisher Scientific, Waltham, MA, USA). High-resolution mass spectra (HRMS) were acquired on a LTQ Orbitrap Velos spectrometer (Thermo Scientific) and on a Bruker MicrOTOF. FTIR spectra were acquired on an IR Affinity-1 spectrometer (Shimadzu, Thermo Scientific). Organic solvents used were dried by standard methods when necessary. Commercially available reagents were used without further purification. All reactions were monitored by TLC with silica gel coated plates (EMD/Merck KGaA, Darmstadt, Germany), with visualization by UV light and by charring with 0.1% ninhydrin in EtOH. Column chromatography was performed using Merck 60 Å 70–230 mesh silica gel. The optical density was determined using a Multiskan FC spectrophotometer (Thermo Scientific) at a wavelength of 540 nm when using the MTT assay.
(§3) MCF-7 (breast cancer), PC-3 (prostate adenocarcinoma), HCT-116 (colorectal cancer cell), A549 (lung cancer), K562 (chronic myelogenous leukemia), THP-1 (acute monocytic leukemia), and RPMI8226 (multiple myeloma), Jurkat (acute T-cell leukemia), HEF (human embryonic fibroblasts) was purchased from the Russian Academy of Sciences Cells Bank (Institute of Cytology of the Russian Academy of Sciences, Saint Petersburg, Russian Federation). Multiple myeloma cell line NCI-H929 was purchased from ATCC (USA). The MCF-7, A549 and HEF (human embryonic fibroblasts) were cultured in DMEM medium. Other cell lines were cultured in RPMI1640 medium, (PanEco, Russia) supplemented with 10% fetal bovine serum (GE Healthcare LifeSciences, São Paulo, Brazil), and gentamicin at a concentration of 40 μg/mL and cultured at 37 °C in a humidified atmosphere containing 5% CO2. All experiments were performed with cells at passages 3 to 7 in the logarithmic phase of growth.
(§4) Cells were seeded into 96-well plates of 5 × 10^3 for adhesive cultures and 20 × 10^3 for suspension cultures per well in 90 μL and 135 μL of culture medium, respectively. The test substances were dissolved in DMSO to a concentration of 1 × 10^−2 M. For subsequent dilution of the substances, a serum-free culture medium was used as the diluent. Final concentration of DMSO in wells was no more than 1%. […] Substances were added to the cells in 3–4 replicates after 24 h for adhesive cultures and immediately for suspension cultures. 10–15 μL of serum-free medium was added to the control wells with non-exposed cells. Cells were cultured for 72 h at 37 °C in an atmosphere of 5% CO2.

[2] = system: human multiple myeloma RPMI8226 cells; test: MTT cytotoxicity assay, RPMI8226; details: Homo sapiens, RPMI-8226; MTT, 72 h, n = 3, ± SD; read-out: Suspension Cell Cultures, IC50 RPMI8228
Experimental: as §1, §2, §3, §4

[3] = system: human multiple myeloma NCI-H929 cells; test: MTT cytotoxicity assay, NCI-H929; details: Homo sapiens, MTT, 72 h, n = 3, ± SD, read-out: Suspension Cell Cultures, IC50 NCI-Н929
Experimental: as §1, §2, §3, §4

[4] = system: human acute T-cell leukemia Jurkat cells; test: MTT cytotoxicity assay, Jurkat; details: Homo sapiens, MTT, 72 h, n = 3, ± SD, read-out: Suspension Cell Cultures, IC50 Jurkat
Experimental: as §1, §2, §3, §4

[5] = system: human breast cancer MCF-7 cells; test: MTT cytotoxicity assay, MCF-7; details: MCF7, 72 h, n = 3, ± SD, read-out: Adhesive Cell Cultures, IC50 MCF-7
Experimental: as §1, §2, §3, §4

[6] = system: human chronic myelogenous leukemia K562 cells; test: MTT cytotoxicity assay, K562; details: Homo sapiens, MTT, 72 h, n = 3, ± SD, read-out: Suspension Cell Cultures, IC50 К562
Experimental: as §1, §2, §3, §4

[7] = system: human colorectal cancer HCT-116 cells; test: MTT cytotoxicity assay, HCT-116; details: Homo sapiens, MTT, 72 h, n = 3, ± SD, read-out: Adhesive Cell Cultures, IC50 HCT-116
Experimental: as §1, §2, §3, §4

[8] = system: human prostate adenocarcinoma PC-3 cells; test: MTT cytotoxicity assay, PC-3; details: Homo sapiens, MTT, 72 h, n = 3, ± SD, read-out: Adhesive Cell Cultures, IC50 PC-3
Experimental: as §1, §2, §3, §4

[9] = system: human acute monocytic leukemia THP-1 cells; test: MTT cytotoxicity assay, THP-1; details: 72 h, n = 3, ± SD, read-out: Suspension Cell Cultures, IC50 THP-1
Experimental: as §1, §2, §3, §4

[10] = system: human embryonic fibroblasts HEF; test: MTT cytotoxicity assay, HEF (control cells); details: Fibroblast, 72 h, n = 3, ± SD, read-out: Adhesive Cell Cultures, IC50 HEF
Experimental: as §1, §2, §3, §4

SMILES | IC50 [1] | IC50 [2] | IC50 [3] | IC50 [4] | IC50 [5] | IC50 [6] | IC50 [7] | IC50 [8] | IC50 [9] | IC50 [10]
C=C1C2=C(C(=O)N1OC)[C@@H](NC)[C@@](C)(O)[C@H](CCCCC)O2 [Compound 1, (2S,3R,4R)-3-Hydroxy-6-methoxy-3-methyl-4-(methylamino)-7-methylene-2-pentyl-3,4,6,7-tetrahydro-pyrano[2,3-c]pyrrol-5(2H)-one] | 12.7 ± 0.4 µM | 3.97 ± 0.68 µM | 1.35 ± 0.69 µM | 2.75 ± 0.21 µM | 4.1 ± 0.44 µM | 3.25 ± 0.64 µM | 3.68 ± 0.81 µM | 3.35 ± 0.92 µM | 2.25 ± 0.21 µM | 22.3 ± 0.44 µM
C=C1C2=C(C(=O)N1OC)[C@@H](NCCO)[C@@](C)(O)[C@H](CCCCC)O2 [Compound 2, (2S,3R,4R)-3-Hydroxy-4-[(2-hydroxyethyl)amino]-6-methoxy-3-methyl-7-methylene-2-pentyl-3,4,6,7-tetra-hydropyrano[2,3-c]pyrrol-5(2H)-one] | 15.1 ± 0.45 µM | 3.5 ± 0.82 µM | 2.05 ± 0.35 µM | 2.6 ± 0.99 µM | 3.23 ± 1.07 µM | 5.5 ± 0.57 µM | 4.63 ± 0.04 µM | 5.55 ± 1.48 µM | 2.3 ± 0.57 µM | 16.2 ± 0.26 µM
C=C1C2=C(C(=O)N1OC)[C@@H](NCCCCO)[C@@](C)(O)[C@H](CCCCC)O2 [Compound 3, (2S,3R,4R)-3-Hydroxy-4-[(4-hydroxybutyl)amino]-6-methoxy-3-methyl-7-methylene-2-pentyl-3,4,6,7-tetra-hydropyrano[2,3-c]pyrrol-5(2H)-one] | – | 2.7 ± 0.28 µM | 1.95 ± 0.21 µM | 3.15 ± 1.77 µM | 3.05 ± 1.2 µM | 6.7 ± 0.28 µM | 2.9 ± 0.98 µM | 4.5 ± 1.56 µM | 2.6 ± 0.57 µM | 15.2 ± 1.02 µM
C=CCN[C@@H]1C2=C(O[C@@H](CCCCC)[C@]1(C)O)C(=C)N(OC)C2=O [Compound 4, (2S,3R,4R)-4-(Allylamino)-3-hydroxy-6-methoxy-3-methyl-7-methylene-2-pentyl-3,4,6,7-tetrahydropyrano-[2,3-c]pyrrol-5(2H)-one] | 12.7 ± 0.27 µM | 6 ± 0.13 µM | 2.35 ± 0.09 µM | 3.27 ± 0.07 µM | 4.13 ± 0.23 µM | 10.5 ± 0.41 µM | 8.4 ± 0.24 µM | 6.37 ± 0.18 µM | 3.32 ± 0.1 µM | 5.03 ± 0.15 µM
C=C1C2=C(C(=O)N1OC)[C@@H](NCc1ccccc1)[C@@](C)(O)[C@H](CCCCC)O2 [Compound 5, (2S,3R,4R)-4-(benzylamino)-3-hydroxy-6-methoxy-3-methyl-7-methylene-2-pentyl-3,4,6,7-tetrahydro-pyrano[2,3-c]pyrrol-5(2H)-one] | 37.5 ± 1.33 µM | 16 ± 0.16 µM | – | 10.1 ± 0.44 µM | 35.7 ± 0.65 µM | 14.1 ± 0.48 µM | 12.9 ± 0.3 µM | 24.7 ± 1.24 µM | 15.1 ± 0.36 µM | 53.1 ± 1.06 µM
C=C1C2=C(C(=O)N1OC)[C@@H](N1CCC(N3CCCC3)CC1)[C@@](C)(O)[C@H](CCCCC)O2 [Compound 7, (2S,3R,4R)-3-Hydroxy-6-methoxy-3-methyl-7-methylene-2-pentyl-4-(4-pyrrolidin-1-ylpiperidin-1-yl)-3,4,6,7-tetrahydropyrano[2,3-c]pyrrol-5(2H)-one] | 12.2 ± 0.2 µM | 3.35 ± 1.48 µM | 2 ± 0.26 µM | 2.73 ± 1.53 µM | 1.8 ± 0.44 µM | 6.03 ± 0.91 µM | 1.65 ± 0.63 µM | 3.65 ± 0.64 µM | 3.45 ± 0.21 µM | 22.3 ± 0.33 µM
C=C1C2=C(C(=O)N1OC)[C@@H](N1CCC(O)CC1)[C@@](C)(O)[C@H](CCCCC)O2 [Compound 8, (2S,3R,4R)-3-Hydroxy-4-(4-hydroxypiperidin-1-yl)-6-methoxy-3-methyl-7-methylene-2-pentyl-3,4,6,7-tetra-hydropyrano[2,3-c]pyrrol-5(2H)-one] | 9.4 ± 0.14 µM | 1.4 ± 0.28 µM | 1.87 ± 0.25 µM | 2.6 ± 1.13 µM | 3.2 ± 0.52 µM | 4.9 ± 2.4 µM | 2.64 ± 0.05 µM | 4.53 ± 0.4 µM | 2.1 ± 0.28 µM | 6.7 ± 0.23 µM
C=C1C2=C(C(=O)N1OC)[C@H](O)[C@@](C)(O)[C@H](CCCCC)O2 [PPA, phaeosphaeride A] | 41.1 ± 2.6 µM | 9.15 ± 0.64 µM | 6.5 ± 0.3 µM | 9.7 ± 0.42 µM | 20.3 ± 0.8 µM | 20.5 ± 1.46 µM | 24.2 ± 0.75 µM | 32.1 ± 0.77 µM | 19.1 ± 0.45 µM | 19.1 ± 0.25 µM
